The source of these data is patent publication US20230059087A1, “CANNABIDIOL DERIVATIVES, PREPARATION METHOD THEREOF AND USE THEREOF” (CHENGDU BAIYU PHARMACEUTICAL CO., LTD., priority 2020, published 2023).

A short description of the first data set: in vivo. The following applies: SD, rat, po, 50 mg/kg.
Description: (§1) Healthy adult SD rats (n=3 per group) were fasted overnight (free access to water), and then were administrated the drugs by intragastric administration (i.g.) (50 mg/kg). 0.1 mL of blood was collected from the jugular venous plexus of the rats at 15 minutes, 30 minutes, 1 hour, 2 hours, 4 hours, 6 hours, 8 hours, 24 hours after administration. All blood samples were anticoagulated with K2EDTA, then centrifuged at 3500 rpm at 5° C. for 10 minutes to separate plasma, and stored at −20° C. for test. Parent drug concentration in plasma was determined by LC/MS/MS method.
`[2H]C([2H])([2H])C1=C[C@H](c2c(O)cc(CCC)cc2O)C(C(=C)C)CC1` (stereo in doubt) [Example 3, 5′-(methyl-d3)-2′-(prop-1-en-2-yl)-4-propyl-1′,2′,3′,4′-tetrahydro-[1,1′-biphenyl]-2,6-diol]: the area under the curve AUC(0-inf) came out at 4480 ng·h/mL, the AUC(0-t) came out at 4230 ng·h/mL, the Cmax was 795 ng/mL and the Tmax was found to be 2.1 h. This compound showed a half-life of 4.9 h.

A further data set is described as follows: Pharmacokinetics in rats after intragastric administration. Conditions: SD, rat, plasma, po, 50 mg/kg.
Description: as §1
As to `[2H]C([2H])([2H])C1=C[C@@H](c2c(O)cc(CCCCCCC)cc2O)[C@H](C(=C)C)CC1` [Example 9, (1′R,2′R)-4-heptyl-5′-(methyl-d3)-2′-(prop-1-en-2-yl)-1′,2′,3′,4′-tetrahydro-[1,1′-biphenyl]-2,6-diol], the AUC(0-inf) worked out at 6480 ng·h/mL, the exposure AUC(0-t) amounted to 6220 ng·h/mL, the peak level (Cmax) was 823 ng/mL and the Tmax was found to be 2 h. This compound gave a half-life of 7.9 h.
On to `[2H]C([2H])=C([C@@H]1CCC(C([2H])([2H])[2H])=C[C@H]1c1c(O)cc(CCCCC)cc1O)C([2H])([2H])[2H]` [Example 7, (1′R,2′R)-5′-(methyl-d3)-4-pentyl-2′-(prop-1-en-2-yl-d5)-1′,2′,3′,4′-tetrahydro-[1,1′-biphenyl]-2,6-diol], for which the AUC(0-inf) stood at 6290 ng·h/mL, the AUC(0-t) was determined as 5830 ng·h/mL, the maximum concentration (Cmax) came out at 901 ng/mL and the Tmax is 2.2 h. In addition, the half-life is 6.5 h.
Take `[2H]C([2H])([2H])C1=C[C@@H](c2c(O)cc(CCCCC)cc2O)[C@H](C(=C)C)CC1([2H])[2H]` [Example 13, (1′R,2′R)-5′-(methyl-d3)-4-pentyl-2′-(prop-1-en-2-yl)-1′,2′,3′,4′-tetrahydro-[1,1′-biphenyl]-4′,4′-d2-2,6-diol]: the AUC(0-inf) amounted to 6180 ng·h/mL, the AUC(0-t) came to 5980 ng·h/mL, the maximum concentration (Cmax) stood at 871 ng/mL and the time to peak (Tmax) came out at 2 h. The compound further had a half-life of 6 h.
Regarding `[2H]C([2H])(O)C1=C[C@@H](c2c(O)cc(CCCCC)cc2O)[C@H](C(=C)C)CC1([2H])[2H]` [Example 16], the AUC(0-inf) came to 5630 ng·h/mL, the AUC(0-t) amounted to 5490 ng·h/mL, the Cmax stood at 860 ng/mL and the time of peak concentration (Tmax) worked out at 1.5 h. Moreover, the half-life is 5.8 h.
With `C=C(C)[C@@H]1CCC(C)=C[C@H]1c1c(O)cc(CCCCC)cc1O` [CBD, cannabidiol], the AUC(0-inf) worked out at 4500 ng·h/mL, the AUC(0-t) is 4460 ng·h/mL, the concentration peaked (Cmax) at 784 ng/mL and the time of peak concentration (Tmax) was 2 h. Also, the half-life is 4.8 h.
Regarding `[2H]C([2H])([2H])C1=C[C@H](c2c(O)cc(CCCCC)c(C(=O)O)c2O)[C@@H](C(=C)C)CC1` [Example 23], the total exposure AUC(0-inf) amounted to 8230 ng·h/mL, the exposure AUC(0-t) is 6980 ng·h/mL, the Cmax is 977 ng/mL and the Tmax came to 1.75 h. The half-life is 6.5 h.

The term AUC(0-inf) denotes the area under the concentration-time curve extrapolated to infinity. Usually AUC(0-t) stands for the area under the concentration-time curve up to a stated or last time point. Read a low AUC(0-t) as less exposure. As usually defined, the Cmax is the peak of the concentration-time curve. A word on the Tmax: it is the time from dosing to the highest level. One may read the half-life as the time in which the quantity being followed falls by half. A high value points to slow loss.
